This passage reports MIC results from DBAASP.

Each structure is given as a SMILES string. ≈ marks a conversion by molar mass, not a printed value.

Common to all, as to assay: ≥ marks a high value that may be exact or a test limit, other limits are often not marked, values filed in µg/mL are converted to µM
In assay [1] the test system is Escherichia coli ATCC 25922.
Assay [2] has as its system Klebsiella pneumoniae ATCC 13883.
Assay [3] concerns Pseudomonas aeruginosa PAO1.
Assay [4] deals with Staphylococcus aureus USA 300.
Assay [5] has as its system Cronobacter sakazakii DPC 6440.
Assay [6] concerns Listeria monocytogenes LO28.
For assay [7], the system named is Bacillus megaterium.
Assay [8] has as its system Candida albicans ATCC 2002.
For assay [9], the system named is Klebsiella pneumoniae.
The test system of assay [10] is Pseudomonas aeruginosa CMCCB 10104.
In assay [11] the test system is Shigella dysenteriae.
Assay [12] concerns Staphylococcus aureus ATCC 2592.
Assay [13] deals with Escherichia coli ML-35p.
Assay [14] has as its system Staphylococcus aureus RN4220.
The subject of assay [15] is Candida albicans ATCC 10231.
The subject of assay [16] is Enterococcus faecalis PCM 2673.
Assay [17] has as its system Pseudomonas aeruginosa ATCC 9027.
The subject of assay [18] is Staphylococcus aureus ATCC 25923.
The test system of assay [19] is Bacillus subtilis.
For assay [20], the system named is Escherichia coli.
The test system of assay [21] is Micrococcus luteus.
The subject of assay [22] is Proteus mirabilis.
The subject of assay [23] is Pseudomonas aeruginosa.
The test system of assay [24] is Salmonella typhimurium.
Assay [25] deals with Staphylococcus aureus.
The subject of assay [26] is Staphylococcus epidermidis.
Assay [27] concerns Candida albicans ATCC 24433.
Assay [28] deals with Staphylococcus epidermidis ATCC 12228.
In assay [29] the test system is Escherichia coli K-12.

By MIC is commonly meant the lowest concentration found to suppress growth. Read a high MIC as a less susceptible organism. With `CC(C)C[C@H](NC(=O)[C@H](CC(C)C)NC(=O)[C@H](CCCCN)NC(=O)[C@H](CC(C)C)NC(=O)CNC(=O)[C@H](CC(C)C)NC(=O)[C@H](CCCCN)NC(=O)[C@H](CC(C)C)NC(=O)[C@H](CC(C)C)NC(=O)[C@H](CC(C)C)NC(=O)[C@H](CO)NC(=O)[C@H](CC(C)C)NC(=O)CN)C(N)=O` [GLSLLLKLGLKLL], the MIC is over 25 µM in assay [1], 25 µM (≈ 34.5 µg/mL) in assay [2], over 25 µM in [3] and 1.13 µM (≈ 1.56 µg/mL) in assay [4].

As to `CC[C@H](C)[C@H](NC(=O)[C@@H](N)Cc1c[nH]c2ccccc12)C(=O)N[C@@H](C)C(=O)N1CCC[C@H]1C(=O)N[C@@H](CCCCN)C(=O)N[C@H](C(=O)N[C@@H](CCCCN)C(=O)N[C@H](C(=O)N[C@H](C(=O)N1CCC[C@H]1C(=O)N[C@@H](Cc1ccc(O)cc1)C(=O)N[C@H](C(=O)N[C@@H](CCCN=C(N)N)C(=O)N[C@@H](Cc1ccc(O)cc1)C(=O)N[C@@H](CC(C)C)C(=O)O)C(C)C)[C@@H](C)CC)C(C)C)[C@@H](C)O` [WIAPKTKVIPYVRYL], the MIC in assay [5] was at least 78.1 µM; in assay [6] it was 19.5 µM (≈ 36.1 µg/mL).

Take `CC[C@H](C)[C@H](N=C(O)CN)C(O)=NCC(O)=N[C@H](C(O)=N[C@@H](CCCCN)C(O)=N[C@H](C(O)=N[C@@H](CC(C)C)C(O)=NCC(O)=NCC(O)=N[C@H](C(O)=N[C@@H](CCCCN)C(O)=N[C@H](C(O)=N[C@@H](C)C(O)=N[C@@H](CC(C)C)C(O)=N[C@@H](CCCCN)C(O)=NCC(O)=N[C@@H](C)C(O)=N[C@@H](CC(C)C)C(O)=N[C@@H](CCCCN)C(O)=N[C@@H](CCC(=O)O)C(O)=N[C@@H](CC(C)C)C(O)=N[C@@H](C)C(O)=N[C@@H](CO)C(O)=N[C@H](C(O)=N[C@@H](Cc1ccc(O)cc1)C(O)=N[C@@H](C)C(O)=N[C@@H](CC(=N)O)C(=N)O)[C@@H](C)O)[C@@H](C)O)C(C)C)[C@@H](C)CC)[C@@H](C)O` [GIGTKILGGVKTALKGALKELASTYAN]: the minimum inhibitory concentration (MIC) in assay [7] is 7.29 µM (≈ 19.5 µg/mL); in assay [8], 1.12 µM (≈ 3 µg/mL); in assay [1] it was 7.29 µM (≈ 19.5 µg/mL); in [9] it was 3.36 µM (≈ 9 µg/mL); in assay [10], 7.29 µM (≈ 19.5 µg/mL); in assay [11] it was 1.01 µM (≈ 2.7 µg/mL). In [12], this compound gave an MIC of 7.29 µM (≈ 19.5 µg/mL).

`NC(=O)[C@H](CCCN=C(N)N)NC(=O)[C@H](CCCN=C(N)N)NC(=O)[C@H](Cc1c[nH]c2ccccc12)NC(=O)[C@H](CCCN=C(N)N)NC(=O)[C@H](CCCN=C(N)N)NC(=O)[C@H](Cc1c[nH]c2ccccc12)NC(=O)[C@H](Cc1c[nH]c2ccccc12)NC(=O)[C@H](CCCN=C(N)N)NC(=O)[C@@H](N)CCCN=C(N)N` [RRWWRRWRR]: the MIC is 25 µM (≈ 37.8 µg/mL) in [13] and at least 100 µM in [14].

Take `CC[C@H](C)[C@H](NC(=O)[C@@H](N)Cc1c[nH]c2ccccc12)C(=O)N[C@@H](CCC(N)=O)C(=O)N1CCC[C@H]1C(=O)N[C@@H](CCCCN)C(=O)N[C@H](C(=O)N[C@@H](CCCCN)C(=O)N[C@H](C(=O)N[C@H](C(=O)N1CCC[C@H]1C(=O)N[C@@H](Cc1ccc(O)cc1)C(=O)N[C@H](C(=O)N[C@@H](CCCN=C(N)N)C(=O)N[C@@H](Cc1ccc(O)cc1)C(=O)N[C@@H](C)C(=O)O)C(C)C)[C@@H](C)CC)C(C)C)[C@@H](C)O` [WIQPKTKVIPYVRYA]: the MIC in assay [5] was at least 78.1 µM; in assay [6], at least 39.1 µM.

Consider `CC[C@H](C)[C@H](NC(=O)[C@H](CCCCN)NC(=O)[C@H](CCCCN)NC(=O)[C@@H](NC(=O)[C@@H](NC(=O)[C@H](CC(=O)O)NC(=O)[C@H](Cc1ccccc1)NC(=O)[C@H](CC(C)C)NC(=O)[C@H](C)N)[C@@H](C)CC)[C@@H](C)CC)C(=O)N[C@@H](C)C(=O)N[C@@H](CCC(=O)O)C(=O)N[C@@H](CO)C(=O)N[C@@H](Cc1ccccc1)C(N)=O` [ALFDIIKKIAESF], for which the MIC in assay [15] is 85.6 µM (≈ 128 µg/mL); in [16], at least 85.6 µM; in assay [1] it was 85.6 µM (≈ 128 µg/mL); in [17], 343 µM (≈ 512 µg/mL); in [18] it was 343 µM (≈ 512 µg/mL).

`CC(C)C[C@H](NC(=O)[C@H](C)NC(=O)CNC(=O)[C@H](CC(C)C)NC(=O)[C@@H](N)Cc1ccccc1)C(=O)N[C@@H](Cc1ccccc1)C(=O)N[C@@H](CCCCN)C(=O)N[C@@H](Cc1ccccc1)C(=O)N[C@@H](C)C(=O)N[C@@H](CO)C(=O)N[C@@H](CCCCN)C(=O)O` [FLGALFKFASK]: the minimal inhibitory concentration (MIC) was 20.4 µM (≈ 25 µg/mL) in [19]; 81.4 µM (≈ 100 µg/mL) in assay [20]; 81.4 µM (≈ 100 µg/mL) in [9]; 20.4 µM (≈ 25 µg/mL) in [21]; at least 163 µM in assay [22]; over 163 µM in [23]. Further, the minimal inhibitory concentration (MIC) in [24] was at least 163 µM; in assay [11] it was at least 81.4 µM; in assay [25], 40.7 µM (≈ 50 µg/mL); in assay [26], at least 81.4 µM.

For the compound `CC(C)C[C@H](NC(=O)CNC(=O)CNC(=O)CNC(=O)[C@H](C)NC(=O)[C@H](CC(C)C)NC(=O)[C@H](CC(N)=O)NC(=O)CNC(=O)[C@H](CC(C)C)NC(=O)[C@H](CC(C)C)NC(=O)CNC(=O)[C@@H](NC(=O)[C@@H](NC(=O)[C@H](CO)NC(=O)[C@H](CC(N)=O)NC(=O)[C@H](CC(C)C)NC(=O)[C@H](CC(C)C)NC(=O)CNC(=O)[C@H](CO)NC(=O)[C@@H](NC(=O)[C@H](CC(C)C)NC(=O)CN)C(C)C)C(C)C)[C@@H](C)O)C(=O)O` [GLVSGLLNSVTGLLGNLAGGGL], the minimum inhibitory concentration (MIC) was at least 100 µM in assay [27], over 100 µM in [1] and over 100 µM in assay [28].

As for `CC[C@H](C)[C@H](NC(=O)[C@H](C)NC(=O)[C@H](CCCCN)NC(=O)[C@@H](NC(=O)[C@@H](NC(=O)[C@H](CC(=O)O)NC(=O)[C@H](Cc1ccccc1)NC(=O)[C@H](CC(C)C)NC(=O)CN)[C@@H](C)CC)[C@@H](C)CC)C(=O)N[C@@H](C)C(=O)N[C@@H](CCC(=O)O)C(=O)N[C@@H](CO)C(=O)N[C@@H](Cc1ccccc1)C(N)=O` [GLFDIIKAIAESF], the minimal inhibitory concentration (MIC) in assay [15] is 45 µM (≈ 64 µg/mL); in assay [16], at least 45 µM; in assay [1], 89.9 µM (≈ 128 µg/mL); in assay [17], over 360 µM; in assay [18] it was over 360 µM.

For the compound `CC(C)[C@H](NC(=O)[C@H](CO)NC(=O)[C@H](Cc1cnc[nH]1)NC(=O)[C@H](Cc1ccccc1)NC(=O)[C@H](C)NC(=O)[C@H](CCCCN)NC(=O)CNC(=O)[C@H](Cc1ccccc1)NC(=O)CN)C(=O)N[C@@H](CO)C(=O)N[C@@H](CC(N)=O)C(=O)N[C@@H](Cc1ccccc1)C(=O)N[C@@H](C)C(=O)N[C@@H](CCCCN)C(=O)N[C@@H](CCCCN)C(=O)N[C@@H](Cc1cnc[nH]1)C(=O)N[C@@H](CCCCN)C(=O)N[C@H](C(=O)N[C@@H](C)C(N)=O)[C@@H](C)O` [GFGKAFHSVSNFAKKHKTA], the MIC in [29] and in assay [4] was at least 100 µM each time.

Consider `CC[C@H](C)[C@H](NC(=O)[C@H](Cc1c[nH]c2ccccc12)NC(=O)[C@@H]1CCCN1C(=O)[C@H](CCCCN)NC(=O)[C@H](CCSC)NC(=O)[C@H](C)NC(=O)[C@@H](N)CCCCN)C(=O)N[C@@H](CCC(N)=O)C(=O)N1CCC[C@H]1C(=O)N[C@@H](CCCCN)C(=O)N[C@H](C(=O)N[C@@H](CCCCN)C(=O)N[C@H](C(=O)N[C@H](C(=O)N1CCC[C@H]1C(=O)O)[C@@H](C)CC)C(C)C)[C@@H](C)O` [KAMKPWIQPKTKVIP], for which the MIC is at least 1250 µM in [5] and at least 156 µM in assay [6].
